Results: patent US4021553A, “5,6-Diaryl-1,2,4-triazines as topically-active anti-inflammatory agents” (Eli Lilly and Company, priority 1976, dated 1977)

These molecules were tested on erythemic response (ultraviolet-induced erythema) (assay: UV-induced erythemic response inhibition in guinea pigs, topical (modification of the method of Winder)). Details: dose 100 mcg./12 cm.^2, in ethanol, weighted scores 1.0-2.5 hours.
Assay type: in vivo, Albino guinea pigs
Experimental: A modification of the method of Winder was used to measure the anti-inflammatory activities of the compounds employed in the method of the present invention; see C. V. Winder, et al., Arch. Int. Pharmacodyn., 116, 261 (1958). Albino guinea pigs of either sex, weighing 225-300 grams, were shaved on the back and chemically depilated (Nair® Lotion Hair Remover, Carter Products, N.Y., N.Y.) 18-20 hours before exposure to ultraviolet light. The animals, in groups of four and bearing identifying ear tags, were treated by applying to an area of skin of about 12 cm.^2 a solution of test compound dissolved in 0.1 cc. of ethanol. The control treatment consisted of administering only the drug vehicle, ethanol, to a group of four animals. Groups of four animals each were given different treatment levels of test compound to obtain dose responses. Random order and blind administration of the test compounds were employed; drug idenfication was not made until after all animals were graded. Immediately prior to drug application, the animals were exposed in groups of four to a high-intensity ultraviolet light for a measured period of time (usually 4-7 seconds). The ultraviolet light source, a Hanovia Lamp (Kroymayer-Model 10), was placed in contact with the skin of the animal's back. A gummed notebook paper reinforcement was affixed to the lamp lens to provide an unexposed area of contrast for grading the erythema. Beginning one hour after exposure and thereafter at half-hour intervals for another 1 1/2 hours, the degree of resulting erythema was graded by an arbiturary scoring system based upon the degree of contrast and redness formed. […]
Total scores from each treatment group of four guinea pigs were prepared to the control treatment, and the percent inhibition was calculated as follows: [formula]
A dose-response graph was obtained by plotting dose versus percent inhibition, the points representing the average of each treatment group of four guinea pigs. […] The plotted or calculated ED50 for the particular compound tested, where available, is given in the last column of Table I.

| SMILES | % Inhibition compared with control (erythemic response) [%] |
| --- | --- |
| COc1ccc(-c2nnc(SCc3ccccc3)nc2-c2ccc(OC)cc2)cc1 [CH2 C6 H5 S 1 OCH3 OCH3, 3-benzylthio-5,6-bis(4-methoxyphenyl)-1,2,4-triazine] | 49 |
| COc1ccc(-c2nnc(SC(C)C)nc2-c2ccc(OC)cc2)cc1 [CH(CH3)2 S 1 OCH3 OCH3, 3-isopropylthio-5,6-bis(4-methoxyphenyl)-1,2,4-triazine] | 35 |
| COc1ccc(-c2ncnnc2-c2ccc(OC)cc2)cc1 [H -- -- OCH3 OCH3, 5,6-bis(4-methoxyphenyl)-1,2,4-triazine] | 53 |
